Consider 22 compounds from patent US9108939B2, “(1, 1, 1,3,3,3-hexafluoro-2 hydroxypropan-2-yl) phenyl derivative, pharmaceutical compositions thereof and their use for the treatment of atherosclerosis” (Merck Sharp & Dohme B.V., priority 2009, dated 2015).

The structures appear in SMILES notation. pKi: −log10 of the molar value.

One test concerns the target T1, recombinant human LXRβ-LBD-GST (Homo sapiens, UniProt P55055).
T1 construct: The LBD of LXRα or LXRβ was amplified by PCR and sub-cloned into the prokaryotic expression vector pGEX-4T-1; made in house; host or cells: E. coli
T1 sequence (P55055 222-460 limits assumed): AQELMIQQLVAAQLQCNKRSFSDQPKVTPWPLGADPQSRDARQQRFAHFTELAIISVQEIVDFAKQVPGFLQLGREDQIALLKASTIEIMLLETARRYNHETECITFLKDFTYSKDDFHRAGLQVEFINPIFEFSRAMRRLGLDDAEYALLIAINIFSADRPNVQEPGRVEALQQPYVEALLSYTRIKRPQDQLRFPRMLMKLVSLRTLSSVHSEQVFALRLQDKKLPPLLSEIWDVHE
Nature of the test: Radioligand competition binding scintillation proximity assay (SpA), LXRβ.
Details: not given
From the text: Radioligand Competition Binding Scintillation Proximity Assay (SpA) Using Recombinant Human LXRα or LXRβ Protein
These assays utilise the purified ligand binding domain (LBD) of Liver X Receptor alpha (LXRα) or Liver X Receptor beta (LXRβ) fused to […] (GST) tagged protein (LXRα-LBD-GST and LXRβ-LBD-GST respectively) and scintillation proximity assay (SpA) technology to determine binding affinities (pKi) of compounds at the ligand binding domain (LBD) of the human nuclear hormone receptor LXRα or LXRβ.
Preparation of Recombinant Human LXRα and LXRβ
Human LXRα and LXRβ were expressed as GST-fusion proteins in E. coli.
The LBD of LXRα or LXRβ was amplified by PCR and sub-cloned into the prokaryotic expression vector pGEX-4T-1 (GE Healthcare). […] E. coli, containing either the LXRα or LXRβ pGEX-4T-1 plasmid, were propagated, induced, and harvested by centrifugation. The bacterial pellets were resuspended in lysis buffer containing 50 mM tris(Hydroxymethyl)aminomethane (TRIS)-pH 8.0, 100 mM Sodium Chloride (NaCl), 1 mM ethylenediaminetetraacetic acid (EDTA) and one tablet of Proteinase inhibitor cocktail complete/EDTA free (Roche) (per 50 mL of buffer). The mixtures were sonicated on ice with a Branson sonifier. The suspensions were centrifuged and dithiothreitol (DTT) added to the supernatants to obtain a final concentration of 25 mM. […] Proteins were stored in 20 mM N2-hydroxyethylpiperazine-N′-2-ethanesulfonic acid (HEPES), 2 mM DTT with 10% glycerol at −80° C.
Binding to LXRα or LXRβ LBDs
For LXRα or LXRβ assays, an aliquot of recombinant human LXRα-LBD-GST or LXRβ-LBD-GST protein was diluted to 0.5 μg/mL and incubated in a final volume of 100 μL SpA buffer (10 mM potassium hydrogen phosphate anhydrous [K2HPO4], 10 mM potassium Phosphate Monobasic [KH2PO4], 2 mM EDTA pH 7.1, 50 mM NaCl, 1 mM DTT, 2 mM 3-[(3-cholamidopropyl)dimethylammonio]-1-propanesulfonate (CHAPS)) containing Protein-A coupled scintillant filled YtSi SpA beads (GE Healthcare), to a final concentration of 1 mg/mL and Goat anti-GST antibody (GE Healthcare) to a final concentration of 5 μg/mL. […] Test compounds were assayed over a concentration range. After incubation, the assay plates were read on a Packard TopCount.
In general terms: In a radioligand displacement assay an active substance lowers the binding of a labelled ligand.
Turning to `O=C(Nc1ccc(OC2CCN(Cc3ccc(C(O)(C(F)(F)F)C(F)(F)F)cc3)CC2)cc1)Nc1ccnnc1` [Example 1F, 1-(4-(1-(4-(1,1,1,3,3,3-Hexafluoro-2-hydroxypropan-2-yl)benzyl)piperidin-4-yloxy)phenyl)-3-(pyridazin-4-yl)urea], the pKi was 8.23.

Staying with this test, now noted: read-out: LXRβ pKi (converted).
With `O=C(Nc1ccc(CC2CCN(Cc3ccc(C(O)(C(F)(F)F)C(F)(F)F)cc3)CC2)cc1F)NC1CCOCC1` [Example 12AG, 1-(2-Fluoro-4-((1-(4-(1,1,1,3,3,3-hexafluoro-2-hydroxypropan-2-yl)benzyl)piperidin-4-yl)methyl)phenyl)-3-(tetrahydro-2H-pyran-4-yl)urea], the Ki was 21.9 nM.

As to `O=C(Nc1ccncn1)Nc1ccc(CC2CCN(Cc3ccc(C(O)(C(F)(F)F)C(F)(F)F)cc3)CC2)cc1F` [Example 13B, 1-(2-Fluoro-4-((1-(4-(1,1,1,3,3,3-hexafluoro-2-hydroxypropan-2-yl)benzyl)piperidin-4-yl)methyl)phenyl)-3-(pyrimidin-4-yl)urea], the Ki was 9.77 nM.

On to `CC(C)(O)CNC(=O)Nc1ccc(CC2CCN(Cc3ccc(C(O)(C(F)(F)F)C(F)(F)F)cc3)CC2)cc1F` [Example 12AC, 1-(2-Fluoro-4-((1-(4-(1,1,1,3,3,3-hexafluoro-2-hydroxypropan-2-yl)benzyl)piperidin-4-yl)methyl)phenyl)-3-(2-hydroxy-2-methylpropyl)urea], for which the Ki is 17 nM.

In the case of `O=C(Nc1ccncc1)Nc1ccc(OC2CCN(Cc3ccc(C(O)(C(F)(F)F)C(F)(F)F)cc3)CC2)cc1` [Example 2, 1-(4-(1-(4-(1,1,1,3,3,3-Hexafluoro-2-hydroxypropan-2-yl)benzyl)piperidin-4-yloxy)phenyl)-3-(pyridin-4-yl)urea], the Ki was 2.04 nM.

Consider `O=C(Nc1ccc(CC2CCN(Cc3ccc(C(O)(C(F)(F)F)C(F)(F)F)cc3)CC2)cc1)Nc1ccncn1` [Example 7B, 1-(4-((1-(4-(1,1,1,3,3,3-Hexafluoro-2-hydroxypropan-2-yl)benzyl)piperidin-4-yl)methyl)phenyl)-3-(pyrimidin-4-yl)urea], for which the Ki was 4.27 nM.

As to `O=C(Nc1ccc(OC2CCN(Cc3ccc(C(O)(C(F)(F)F)C(F)(F)F)cc3)CC2)cc1)Nc1ccncc1F` [Example 2C, 1-(3-Fluoropyridin-4-yl)-3-(4-(1-(4-(1,1,1,3,3,3-hexafluoro-2-hydroxypropan-2-yl)benzyl)piperidin-4-yloxy)phenyl)urea], the Ki was 2 nM.

In the case of `O=C(Nc1ccncc1)Nc1ccc(CC2CCN(Cc3ccc(C(O)(C(F)(F)F)C(F)(F)F)cc3)CC2)cc1` [Example 7, 1-(4-((1-(4-(1,1,1,3,3,3-Hexafluoro-2-hydroxypropan-2-yl)benzyl)piperidin-4-yl)methyl)phenyl)-3-(pyridin-4-yl)urea], the Ki was 7.94 nM.

`O=C(NCC(O)C(F)(F)F)Nc1ccc(CC2CCN(Cc3ccc(C(O)(C(F)(F)F)C(F)(F)F)cc3)CC2)cc1F` (stereo not shown) [Example 12I, 1-(2-Fluoro-4-((1-(4-(1,1,1,3,3,3-hexafluoro-2-hydroxypropan-2-yl)benzyl)piperidin-4-yl)methyl)phenyl)-3-(3,3,3-trifluoro-2-hydroxypropyl)urea]: the Ki is 2.75 nM.

For the compound `CC(O)(CNC(=O)Nc1cc(F)c(CC2CCN(Cc3ccc(C(O)(C(F)(F)F)C(F)(F)F)cc3)CC2)cc1F)C(F)(F)F` (stereo not shown) [Example 16B, 1-(2,5-Difluoro-4-((1-(4-(1,1,1,3,3,3-hexafluoro-2-hydroxypropan-2-yl)benzyl)piperidin-4-yl)methyl)phenyl)-3-(3,3,3-trifluoro-2-hydroxy-2-methylpropyl)urea], the Ki was 7.94 nM.

As to `CC(C)(O)CNC(=O)Nc1ccc(CC2CCN(Cc3ccc(C(O)(C(F)(F)F)C(F)(F)F)cc3)CC2)cc1Cl` [Example 17, 1-(2-Chloro-4-((1-(4-(1,1,1,3,3,3-hexafluoro-2-hydroxypropan-2-yl)benzyl)piperidin-4-yl)methyl)phenyl)-3-(2-hydroxy-2-methylpropyl)urea], the Ki is 6.03 nM.

`Cc1cc(NC(=O)Nc2ccc(CC3CCN(Cc4ccc(C(O)(C(F)(F)F)C(F)(F)F)cc4)CC3)cc2F)no1` [Example 12E, 1-(2-Fluoro-4-((1-(4-(1,1,1,3,3,3-hexafluoro-2-hydroxypropan-2-yl)benzyl)piperidin-4-yl)methyl)phenyl)-3-(5-methylisoxazol-3-yl)urea]: the Ki was 9.55 nM.

Regarding `O=C(Nc1ccc(OC2CCN(Cc3ccc(C(O)(C(F)(F)F)C(F)(F)F)cc3)CC2)cc1)NC1CCOCC1` [Example 1C, 1-(4-(1-(4-(1,1,1,3,3,3-Hexafluoro-2-hydroxypropan-2-yl)benzyl)piperidin-4-yloxy)phenyl)-3-(tetrahydro-2H-pyran-4-yl)urea], the Ki was 9.77 nM.

For `O=C(Nc1ccc(CC2CCN(Cc3ccc(C(O)(C(F)(F)F)C(F)(F)F)cc3)CC2)cc1F)N[C@H]1CCOC1` [Example 12F, (S)-1-(2-Fluoro-4-((1-(4-(1,1,1,3,3,3-hexafluoro-2-hydroxypropan-2-yl)benzyl)piperidin-4-yl)methyl)phenyl)-3-(tetrahydrofuran-3-yl)urea], the Ki was 17 nM.

As for `O=C(Nc1ccc(CC2CCN(Cc3ccc(C(O)(C(F)(F)F)C(F)(F)F)cc3)CC2)cc1F)NC1COC1` [Example 12AE, 1-(2-Fluoro-4-((1-(4-(1,1,1,3,3,3-hexafluoro-2-hydroxypropan-2-yl)benzyl)piperidin-4-yl)methyl)phenyl)-3-(oxetan-3-yl)urea], the Ki was 21.9 nM.

Consider `CC(O)(CNC(=O)Nc1ccc(CC2CCN(Cc3ccc(C(O)(C(F)(F)F)C(F)(F)F)cc3)CC2)cc1F)C(F)(F)F` (stereo not shown) [Example 12AA, 1-(2-Fluoro-4-((1-(4-(1,1,1,3,3,3-hexafluoro-2-hydroxypropan-2-yl)benzyl)piperidin-4-yl)methyl)phenyl)-3-(3,3,3-trifluoro-2-hydroxy-2-methylpropyl)urea], for which the Ki is 5.75 nM.

With `O=C(Nc1ccncc1)Nc1ccc(CC2CCN(Cc3ccc(C(O)(C(F)(F)F)C(F)(F)F)cc3)CC2)cc1F` [Example 13, 1-(2-Fluoro-4-((1-(4-(1,1,1,3,3,3-hexafluoro-2-hydroxypropan-2-yl)benzyl)piperidin-4-yl)methyl)phenyl)-3-(pyridin-4-yl)urea], the Ki is 5.5 nM.

For `O=C(Nc1ccc(CC2CCN(Cc3ccc(C(O)(C(F)(F)F)C(F)(F)F)cc3)CC2)cc1)NC1COC1` [Example 6P, 1-(4-((1-(4-(1,1,1,3,3,3-Hexafluoro-2-hydroxypropan-2-yl)benzyl)piperidin-4-yl)methyl)phenyl)-3-(oxetan-3-yl)urea], the Ki is 9.12 nM.

As for `O=C(Nc1ccc(CC2CCN(Cc3ccc(C(O)(C(F)(F)F)C(F)(F)F)cc3)CC2)cc1)Nc1ccncc1F` [Example 6S, 1-(3-Fluoropyridin-4-yl)-3-(4-((1-(4-(1,1,1,3,3,3-hexafluoro-2-hydroxypropan-2-yl)benzyl)piperidin-4-yl)methyl)phenyl)urea], the Ki is 7.41 nM.

On to `O=C(Nc1cnoc1)Nc1ccc(CC2CCN(Cc3ccc(C(O)(C(F)(F)F)C(F)(F)F)cc3)CC2)cc1F` [Example 12D, 1-(2-Fluoro-4-((1-(4-(1,1,1,3,3,3-hexafluoro-2-hydroxypropan-2-yl)benzyl)piperidin-4-yl)methyl)phenyl)-3-(isoxazol-4-yl)urea], for which the Ki is 4.9 nM.

As to `CC(C)(O)CNC(=O)Nc1ccc(OC2CCN(Cc3ccc(C(O)(C(F)(F)F)C(F)(F)F)cc3)CC2)cc1` [Example 1D, 1-(4-(1-(4-(1,1,1,3,3,3-Hexafluoro-2-hydroxypropan-2-yl)benzyl)piperidin-4-yloxy)phenyl)-3-(2-hydroxy-2-methylpropyl)urea], the Ki is 11.5 nM.

As to `CC(C)(O)CNC(=O)Nc1cc(F)c(CC2CCN(Cc3ccc(C(O)(C(F)(F)F)C(F)(F)F)cc3)CC2)cc1F` [Example 16, 1-(2,5-Difluoro-4-((1-(4-(1,1,1,3,3,3-hexafluoro-2-hydroxypropan-2-yl)benzyl)piperidin-4-yl)methyl)phenyl)-3-(2-hydroxy-2-methylpropyl)urea], the Ki is 24.5 nM.

For orientation: pKi means −log10 of the Ki, conventionally taken in molar units.
